Assays:
femoral artery [1] = test: Change of femoral arterial blood flow in anesthetized dogs (Experimental Example 4); type: in vivo, dog; conditions: 100 μg/kg i.v.
Experimental: (§1) Each test compound was intravenously administered to adult dogs (one group consisting of 2 or 4 dogs) under anesthesia and artificial respiration at a dose of 100 μg/kg body weight. Femoral arterial blood flow, vertebral arterial blood flow and arterial blood pressure were measured 1, 3, 5, 10, 20 and 30 minutes after the administration. The femoral arterial blood flow and vertebral arterial blood flow were measured with an electromagnetic blood flowmeter (manufactured by Nihon Koden, MFV-2100, trade name) through a flow probe attached to the femoral artery or vertebral artery. The arterial blood pressure was measured with a pressure transducer (manufactured by Millar, MICRO-TIP, Model SPC-350) through a catheter attached to the brachial artery.
(§2) Changes of the femoral arterial blood flow, vertebral arterial blood flow and arterial blood pressure were estimated by comparing the values measured before and after the administration of the test compound.

arterial blood pressure = test: Change of arterial blood pressure in anesthetized dogs (Experimental Example 4); conditions: 100 μg/kg i.v.
Experimental: as §1, §2

hind leg edema = test: Hind leg frostbite model: model of Raynaud's disease (Experimental Example 7); type: in vivo, male SD rat
Experimental: (Hind leg frostbite model: Model of Raynaud's disease)
Left hind leg of male SD rat (one group: 3 to 5 rats) was dipped in dry ice-ethanol for 2 seconds, and after 30 minutes, 30 mg/kg of a test compound dissolved in pure water was administered to the rat and then orally administered twice a day for 6 days continuously. At the final day of the experiment, volumes of both hind legs (below ankle joint) of the rat were measured by a water substitution method and an edema ratio was calculated from the following equation. Also, an inhibition ratio of the test compound administered group was obtained by comparing the edema ratio of the group in which the test compound was not administered. [formula]
The present model is disclosed, for example, in Hayashi et al, "Pharmacological Studies on Niceritrol (10), The Effects on Experimental Models of Peripherally Circulatory Insufficiency", Applied Pharmacology, 24 (6): 859-864 (1982), noting particularly the section "2. Effect on an experimental frostbite model" on page 860.

femoral artery [2] = test: Time course of femoral arterial blood flow in dogs after i.v. administration (Experimental Example 2); type: in vivo, dog
[3] = 30 mg/kg, orally twice a day for 6 days

In the case of `CC(=O)O[C@@H]1C(=O)N(CCN(C)C)c2ccc(C)cc2S[C@@H]1c1ccc(C)cc1` [Compound A], the “Femoral Arterial Blood Flow change” value (femoral artery [1]; 1 min) is reported as 3.5 Δ ml/min, the “Femoral Arterial Blood Flow change” value (femoral artery [1]; 3 min) is reported as 5.5 Δ ml/min and the “Femoral Arterial Blood Flow change” value (femoral artery [1]; 5 min) is reported as 7.8 Δ ml/min. The “Femoral Arterial Blood Flow change” value (femoral artery [1]; 10 min) was 13.0 Δ ml/min, the “Femoral Arterial Blood Flow change” value (femoral artery [1]; 20 min) was 21.5 Δ ml/min and the “Femoral Arterial Blood Flow change” value (femoral artery [1]; 30 min) was 28.0 Δ ml/min. The “AUC60 of the femoral arterial blood flow” value (femoral artery [1]; 60 minutes after administration) was 1538.4 mL, the “femoral arterial blood flow increasing activity” value (femoral artery [1]; even after 30 minutes, in words) was “excellent femoral arterial blood flow increasing activity” and the “Arterial Blood Pressure change (side effects)” value (“Arterial Blood Pressure change” for short) (arterial blood pressure; 1 min) was -1.3 ΔmmHg. For the same compound, the “Arterial Blood Pressure change” value (arterial blood pressure; 3 min) was -0.8 ΔmmHg, the “Arterial Blood Pressure change” value (arterial blood pressure; 5 min) was -1.8 ΔmmHg and the “Arterial Blood Pressure change” value (arterial blood pressure; 10 min) was -1.8 ΔmmHg. For the same compound, the “Arterial Blood Pressure change” value (arterial blood pressure; 20 min) was -2.3 ΔmmHg, the “Arterial Blood Pressure change” value (arterial blood pressure; 30 min) was -0.5 ΔmmHg and the “effect on arterial blood pressure” value (arterial blood pressure; G and H: one minute after, in words) was “substantially no effect”. The “% Inhibition of edema” value (hind leg edema; [3]) was 27%, the Edema (hind leg edema; [3]) was 32 ± 8% and the edema inhibition activity (hind leg edema; rat hind leg frostbite model, in words) was “showed edema inhibition activity”. The “Blood flow (femoral artery)” value (femoral artery [2]; 100 μg/kg i.v., 30 min) was 136.3 mL/min, the “Increase in blood flow (femoral artery)” value (femoral artery [2]; 100 μg/kg i.v., 30 min) was 55.5 mL/min and the “Blood flow (femoral artery)” value (femoral artery [2]; 100 μg/kg i.v., 60 min) was 146.3 mL/min. The “Increase in blood flow (femoral artery)” value (femoral artery [2]; 100 μg/kg i.v., 60 min) was 65.5 mL/min, the “Blood flow (femoral artery)” value (femoral artery [2]; 100 μg/kg i.v., 120 min) was 143.5 mL/min and the “Increase in blood flow (femoral artery)” value (femoral artery [2]; 100 μg/kg i.v., 120 min) was 62.8 mL/min. For the same compound, the “Blood flow (femoral artery)” value (femoral artery [2]; 100 μg/kg i.v., 180 min) was 141.3 mL/min, the “Increase in blood flow (femoral artery)” value (femoral artery [2]; 100 μg/kg i.v., 180 min) was 60.5 mL/min and the “Blood flow (femoral artery)” value (femoral artery [2]; 100 μg/kg i.v., 240 min) was 141.5 mL/min. For the same compound, the “Increase in blood flow (femoral artery)” value (femoral artery [2]; 100 μg/kg i.v., 240 min) was 60.8 mL/min, the “Blood flow (femoral artery)” value (femoral artery [2]; 100 μg/kg i.v., 300 min) was 136.3 mL/min and the “Increase in blood flow (femoral artery)” value (femoral artery [2]; 100 μg/kg i.v., 300 min) was 55.5 mL/min. For the same compound, the “Blood flow (femoral artery)” value (femoral artery [2]; before administration (baseline)) was 80.8 mL/min.
